Patent US11028212B2, “Chloroprene graft copolymer latex, method for producing same, bonding agent and adhesive” (SHOWA DENKO K.K., priority 2016, dated 2021)

Type: physicochemical
Conditions: polymerization initiator
Text: The octanol/water partition coefficient is also expressed as LogPow and is an index representing hydrophobicity (solubility in lipid) of a chemical substance. The measurement method of the octanol/water partition coefficient is basically in accordance with OECD Test Guideline (“C (81) 30 appendix 1” determined by OECD Board of Directors) 107 or Japanese Industrial Standards Z7260-107 (2000), “Determination of partition coefficient (1-octanol/water)-Shake flask method”.

SMILES: CC(C)(C)OO [t-butyl hydroperoxide]
- octanol/water partition coefficient: −1.3
